# According to US12714680B2, “Composition for anti-aging or skin regeneration comprising Okanin” (POSCO CO., LTD, priority 2020, dated 2026):
# Tests used:
# Assay type in all cases: cell-based
# HaCaT cells [1] = experiment: Resistance to cell damage induced by UVB (cell viability, CCK-8); conditions: 1 μM Okanin, UVB 500 mJ/cm2, serum-free, negative control about 40%, p<0.05, FIG. 7
# Experimental: Among the ultraviolet wavelengths, UVB wavelengths corresponding to 280 to 315 nm penetrate the epidermal layer where many keratinocytes exist to cause cell damage. […] The solvent DMSO was used as a negative control group, and the cell viability was measured using the CCK-8 method used in Experimental Example 5.
# HaCaT cells [2] = experiment: Cytotoxicity depending on the concentrations of Okanin (cell viability)
# Experimental: The cytotoxicity of Okanin was measured using HaCaT cells as keratinocytes. When cells are treated with MTT tetrazolium which is a yellow water-soluble substrate, such a substrate is reduced to MTT formazan by mitochondrial enzymes, and the color changes to blue-purple. That is, since the blue-violet color appears darker as the number of living cells increases, the blue-violet absorbance at a wavelength of 540 nm reflects the concentration of living cells. Specifically, after culturing cells to fill each well of a 96-well plate, the cells were treated with Okanin at concentrations of 0, 10, 25, 50 and 100 μM, and cultured for 24 hours and 48 hours in a 5% CO2 incubator at 37° C. Thereafter, cell viability was measured using MIT reagent. A control group not treated with Okanin (0 μM) was treated with the same amount of the solvent DMSO.
# c-myc = experiment: Gene expression change by real-time quantitative PCR in HaCaT cells: c-myc; conditions: 10 μM Okanin, 1 hour, serum-free, corrected with β-actin, FIG. 4
# Excerpt: (§1) Signaling by an EGFR induces the expression of genes important for cell growth and survival through important signaling mediator proteins such as ERK and AKT. The egr1, c-myc, c-jun and c-fos genes are regulated by the EGFR and are well known as genes that promote cell growth and survival. […] Specifically, Tri-reagent was used for mRNA extraction, cDNA was created by a reverse transcription polymerase chain reaction (RT-PCR) using a poly-A primer and a reverse transcriptase, and real-time quantitative PCR was used to measure the amount of each mRNA. The amount of each mRNA was corrected with the amount of β-actin, which is a constitutive gene.
# c-jun = experiment: Gene expression change by real-time quantitative PCR in HaCaT cells: c-jun; conditions: 10 μM Okanin, 1 hour, serum-free, corrected with β-actin, FIG. 4
# Excerpt: as §1
# HaCaT cells [3] = experiment: Growth and proliferation of keratinocytes (CCK-8 assay); conditions: 24 hours, serum-free, vs negative control (DMSO), p<0.05, FIG. 5
# Experimental: Cell counting kit-8 (CCK-8) is a water-soluble tetrazolium salt reagent called WST-8 and forms orange-colored water-soluble Formazan by dehydrogenase in the mitochondria of living cells. […] After cultured for 24 hours, the cells were treated with CCK8, and the cell growth was analyzed by measuring absorbance at 450 nm.
# EGFR = EGFR (Homo sapiens, UniProt P00533); experiment: EGFR activity measurement biosensor system (EGFP-SH2 fluorescence signals); conditions: 100 μM Okanin; cells cultured in serum-free medium 24 hours; compared to DMSO control; FIG. 1
# Sequence of EGFR (P00533 25-1210, species assumed): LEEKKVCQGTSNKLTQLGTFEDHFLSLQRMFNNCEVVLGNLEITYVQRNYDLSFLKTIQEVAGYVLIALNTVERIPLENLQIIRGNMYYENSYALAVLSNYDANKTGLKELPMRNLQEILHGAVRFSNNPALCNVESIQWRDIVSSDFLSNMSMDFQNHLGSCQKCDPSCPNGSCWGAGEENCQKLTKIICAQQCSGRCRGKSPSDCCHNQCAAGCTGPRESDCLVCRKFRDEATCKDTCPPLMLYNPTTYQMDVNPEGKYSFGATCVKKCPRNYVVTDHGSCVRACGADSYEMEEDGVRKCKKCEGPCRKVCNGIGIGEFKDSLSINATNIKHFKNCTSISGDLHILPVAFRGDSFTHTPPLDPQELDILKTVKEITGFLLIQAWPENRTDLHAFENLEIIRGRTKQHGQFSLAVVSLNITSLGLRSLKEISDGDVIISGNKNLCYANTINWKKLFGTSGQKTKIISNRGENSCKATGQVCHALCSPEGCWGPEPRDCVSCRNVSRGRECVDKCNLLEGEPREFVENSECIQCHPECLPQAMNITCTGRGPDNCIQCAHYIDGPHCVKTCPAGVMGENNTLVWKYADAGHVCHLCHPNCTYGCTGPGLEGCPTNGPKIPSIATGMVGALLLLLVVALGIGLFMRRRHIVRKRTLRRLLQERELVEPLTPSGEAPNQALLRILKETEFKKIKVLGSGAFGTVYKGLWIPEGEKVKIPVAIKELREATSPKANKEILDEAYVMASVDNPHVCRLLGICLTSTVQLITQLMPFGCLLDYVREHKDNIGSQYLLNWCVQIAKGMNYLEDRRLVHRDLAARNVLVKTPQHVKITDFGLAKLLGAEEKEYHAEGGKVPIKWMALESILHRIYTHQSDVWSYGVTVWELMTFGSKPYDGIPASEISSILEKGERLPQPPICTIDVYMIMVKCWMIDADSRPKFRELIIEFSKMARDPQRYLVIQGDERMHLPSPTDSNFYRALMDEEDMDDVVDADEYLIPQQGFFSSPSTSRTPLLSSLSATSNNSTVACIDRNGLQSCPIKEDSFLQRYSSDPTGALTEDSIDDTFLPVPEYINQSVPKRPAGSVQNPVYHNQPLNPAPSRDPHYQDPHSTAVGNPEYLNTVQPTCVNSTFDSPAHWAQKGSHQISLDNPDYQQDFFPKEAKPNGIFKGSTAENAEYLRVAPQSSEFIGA
# Experimental: In addition, by using the feature that, when the activities of the EGFR continue to be maintained, the EGFR is internalized into the cell, the cell of the biosensor system that may measure the activities of the EGFR was used in the present experimentation (see Korean Laid-open Patent Publication No. 2019-0014340). […] After culturing the cells in a serum-free medium for 24 hours, the cells were treated with Okanin.
# HaCaT cells [4] = experiment: Wound healing assay; conditions: 1 μM Okanin, culture for 6 days, serum-free; vs negative control; significant difference from the 3rd day (p<0.05); FIGS. 6A, 6B
# Experimental: The cell growth promoting effect of Okanin was confirmed through Wound healing assay. Specifically, after fully culturing HaCaT cells in a 12-well plate, cells on a certain area were scraped off using a yellow tip to form a wound area, changed to a serum-free medium, and treated with 1 μM of Okanin.
# egr1 = experiment: Gene expression change by real-time quantitative PCR in HaCaT cells: egr1; conditions: 10 μM Okanin, 1 hour, serum-free, corrected with β-actin, FIG. 4
# Excerpt: as §1
# ERK = experiment: Activation (phosphorylation) of ERK by Western blotting in HaCaT cells; conditions: serum-free medium, FIG. 3
# Experimental: (§2) It is well known that the activities of extracellular signal-regulated kinase (ERK) and protein kinase B (AKT) transmit signals necessary for cell growth and survival by the activities of an EGFR. In addition, in Experimental Example 1, it was observed that Okanin generated signals due to activation of the EGFR in the cells of the biosense system for measuring the activities of the EGFR. Accordingly, it was measured whether the activities of the EGFR were induced by Okanin to the activities of the ERK and AKT. Specifically, HaCaT cells were cultured in a serum-free medium, treated with 10 μM. of Okanin for 10 minutes, 30 minutes and 60 minutes, respectively, and, thereafter, phosphorylated and activated ERK and AKT were analyzed by Western blotting. As antibodies, a phosphorylation antibody as a marker of activated ERK and AKT, and a general antibody for measuring all of them were used, respectively.
# c-fos = experiment: Gene expression change by real-time quantitative PCR in HaCaT cells: c-fos; conditions: 10 μM Okanin, 1 hour, serum-free, corrected with β-actin, FIG. 4
# Excerpt: as §1
# AKT = experiment: Activation (phosphorylation) of AKT by Western blotting in HaCaT cells; conditions: serum-free medium, FIG. 3
# Experimental: as §2
smiles,measurement,setting,value
"O=C(/C=C/c1ccc(O)c(O)c1)c1ccc(O)c(O)c1O [Okanin, 2′,3,3′,4,4′-pentahydroxychalcone]",cells survived after UVB,HaCaT cells [1],about 60%
same,cytotoxicity,"HaCaT cells [2]; 25 μM, cultured 24 hours and 48 hours, FIG. 2",some cytotoxicity
same,cytotoxicity,"HaCaT cells [2]; 50 μm, cultured 24 hours and 48 hours, FIG. 2",some cytotoxicity
same,cytotoxicity,HaCaT cells [2]; concentration of 10 μM or less,free of cytotoxicity
same,c-myc mRNA,c-myc,increased
same,c-jun mRNA,c-jun,increased
same,growth and proliferation of cells,HaCaT cells [3]; 100 nM Okanin,significantly increased
same,growth and proliferation of cells,HaCaT cells [3]; 1 μM Okanin,significantly increased
same,growth and proliferation of cells,HaCaT cells [3]; 10 μM Okanin,significantly increased
same,EGFR activation (fluorescence signals of biosensor cells),EGFR,activated
same,filling of the wound area,HaCaT cells [4],more quickly filled
same,egr1 mRNA,egr1,increased
same,induction of the activities of ERK,ERK; 10 μM Okanin for 10 minutes,sufficiently induced
same,time within which ERK was rapidly activated,ERK; 10 μM Okanin,≤ 30 min
same,c-fos mRNA,c-fos,increased
same,induction of the activities of AKT,AKT; 10 μM Okanin for 10 minutes,sufficiently induced
same,time within which AKT was rapidly activated,AKT; 10 μM Okanin,≤ 30 min
